Entries after “also recorded” stand apart in the source; their conditions may differ.
Columns and labels:
arterial injury = details: 2.25% in the drinking water, long-term; cited from earlier work
[1] = system: endothelium-dependent vasodilation; details: infusion, hypercholesterolemia; cited from earlier work
endothelial c-NOS [2] = details: plasma L-arginine above normal fasting about 75 to 90 μM; cited from earlier work
[3] = rats, parenteral injection; cited from earlier work
creatine biosynthesis = details: dietary, man; cited from earlier work
[4] = system: oligemic vasoconstriction; details: rats; cited from earlier work
spermatocytes = details: oral 4 to 20 grams daily; cited from earlier work
uterine muscle strips = details: added to extracellular fluid; cited from earlier work
endothelial c-NOS [5] = details: L-glutamine 600 μM; above 10 μM to 1,000 μM and more L-arginine; cited from earlier work
[6] = system: purified endothelial c-NOS; details: purified enzyme in vitro; read-out: apparent Michaelis constant (Km); cited from earlier work
[7] = system: glomerular hyperfiltration; details: long-term oral, marked amounts; cited from earlier work
[8] = oral 3-gram single doses, healthy humans; cited from earlier work
[9] = cited from earlier work
[10] = Total bleeding time, forearm template method (Example 2); assay type: in vivo, human; details: after 4 weeks of 5.4 grams daily in 2 divided doses
Experimental: The same subject that was studied in Example 1 was studied by total bleeding time determinations before and during ingestion of daily doses of L-citrulline, in two divided subdoses. Forearm bleeding times were done by 3 to 5 mm cuts about 1 mm deep made perpendicular to the fold of the elbow during template methodology and a sphygmomanometer cuff maintained near 40 mm Hg pressure. Control bleeding times were 51/2 minutes. Bleeding time rose to 131/2 minutes after 2 days of ingestion of 8.5 grams daily. Bleeding time was prolonged at 13 minutes after 4 weeks of ingestion of 5.4 grams of L-citrulline daily in 2 divided doses.

[11] = Plasma ultrafiltrate L-arginine level after oral L-citrulline (Example 1); assay type: in vivo, human
Experimental: A novel […] method for the quantitative assay of free L-arginine in blood plasma was developed. The method measures the color product from monosubstituted guanidines without and with L-arginase incubation to destroy the arginine and the potential guanido color product that would be derived from L-arginine. The photometric decrease in guanido color product measures specifically the concentration of L-arginine. The L-arginine methodology was applied to ultrafiltrates of blood plasma after ultrafiltrations of separated plasma samples were done at 4° Celsius.
Blood plasma levels after 9 to 10 hours of overnight fasting averaged 83.0±1.1 μM (mean±SD of 3 determinations). Two hours after ingestion of 3.0 grams of L-citrulline in capsular form, plasma L-arginine level rose by […] to 132.7 μM. Overnight fasting plasma levels of L-arginine measured 125.2, 98.1, 90.8, 114.2, and 120.0 μM after ingestion of L-citrulline for 6 days at 6.0 grams, for 13 days at 2.4 grams, for 6 days at 3.4 grams, for 7 days at 6.8 grams, and for 2 days at 8.5 grams, respectively, in 2 divided doses (morning and nightly).

[12] = Tolerability during the study of Example 1; assay type: in vivo, human
Source text: They remained on their usual regular diet and continued working during the study.

[13] = intestinal-derived, portal venous blood; cited from earlier work
migraine pains = assay: Migraine attack, oral L-citrulline capsules (Example 4); assay type: in vivo, human; details: 2.7 grams, again about 1 hour later, third dose 6 hours later
Experimental: […] Their body weight was 59 kg. The subject gave a history of migraine pains with and without aura for about 15 years. Currently, the migraine pains were recurring about once to a few times weekly. Their parent had experienced migraine headaches for many years.
Shortly after the onset of a severe headache attack, the subject ingested 2.7 grams of L-citrulline, followed by another 2.7 grams about 1 hour later. They ingested a third dose of the same amount 6 hours later.

[14] = plasma-borne; cited from earlier work
human platelets = details: 300 μM extracellular; L-arginine 30 μM; cited from earlier work
migraine aura = details: inhalation of small amounts; cited from earlier work
platelet activity = details: cited from earlier work
hippocampal brain tissue = details: extracellular creatine increased by 3 mM; cited from earlier work
muscle = details: oral supplementation daily; cited from earlier work

SMILES: Cl.N=C(N)NCCC[C@H](N)C(=O)O [L-arginine hydrochloride]
- increase of plasma arginine levels (arterial injury): about 2.6 times
- neoendothelium-dependent arterial muscle relaxation (arterial injury): enhanced neoendothelium-dependent arterial muscle relaxation
- thickening after arterial injury (arterial injury): reduced thickening

SMILES: N=C(N)NCCC[C@H](N)C(=O)O [L-arginine]
- impaired endothelium-dependent vasodilation [1]: impaired endothelium-dependent vasodilation is corrected
- endothelial nitric oxide production (endothelial c-NOS [2]): augments endothelial nitric oxide production
- plasma half-life [3]: about 1 hour
- creatine biosynthesis and pools of creatine and phosphocreatine in muscle and nerve (creatine biosynthesis): leads to more creatine biosynthesis and slowly expansible pools of creatine and phosphocreatine
- oligemic vasoconstriction following cortical spreading depression [4]: reduces the oligemic vasoconstriction
- total sperm counts and motility rates (spermatocytes): may improve total sperm counts and motility rates
- muscle quiescence (uterine muscle strips): muscle quiescence
- muscle relaxation (uterine muscle strips): dose-dependent muscle relaxation
- nitric oxide generation (uterine muscle strips): nitric oxide generation
- endothelial production of nitric oxide by c-NOS versus extracellular L-arginine (endothelial c-NOS [5]): directly dependent upon the extracellular concentrations of L-arginine above 10 μM to levels of 1,000 μM and more without apparent saturation of the enzyme
- Km [6]: ~6 µM
- glomerular hyperfiltration and abnormal filtration fraction hemodynamics [7]: prevents the glomerular hyperfiltration and abnormal filtration fraction hemodynamics
- proteinuria [7]: ameliorates the proteinuria
- plasma citrulline levels [8]: without a change in plasma citrulline levels
- time of peak plasma arginine level ([9]; 24.8 grams of L-arginine (30 grams of arginine hydrochloride)): about 1 hour
- time to return to near fasting values ([9]; 24.8 grams of L-arginine): 3 h
- peak plasma arginine relative to fasting values ([9]; 24.8 grams of L-arginine, fasting 90±6 μM): about 3.6 times

SMILES: NC(=O)NCCC[C@H](N)C(=O)O [L-citrulline]
- Bleeding time [10]: 13 min
- rise of plasma L-arginine level ([11]; 2 hours after single oral 3.0 grams, capsular form): 62.4%
- elevation of blood plasma L-arginine versus ingestion of equivalent amounts of L-arginine ([11]; comparison with L-arginine as single amino acid or in protein meals): more efficient and longer lasting
- blood plasma levels of L-arginine after overnight fasting 9 to 10 hours ([11]; daily dosage in two divided subdoses): greater blood plasma levels of L-arginine even after overnight fasting
- blood plasma concentrations of free L-arginine ([11]; single oral doses of 3.0 grams or more, capsule form): promptly raised to much higher levels
- adverse symptoms or untoward signs [12]: No adverse symptoms or untoward signs were experienced
- liver uptake [13]: Without appreciable liver uptake
- migraine pain (migraine pains): markedly lessened in intensity and in duration
- nausea during the migraine attack (migraine pains): Much less nausea
- blood-brain barrier passage [14]: readily passes the blood-brain barrier

SMILES: NC(=O)CC[C@H](N)C(=O)O [L-glutamine]
- effect on L-arginine uptake (human platelets): inhibitory

SMILES: NCCCC[C@H](N)C(=O)O [L-lysine]
- effect on L-arginine uptake (human platelets): inhibitory

SMILES: NCCC[C@H](N)C(=O)O [L-ornithine]
- effect on L-arginine uptake (human platelets): inhibitory

SMILES: CCCCCON=O [amyl nitrite]
- migraine aura (migraine aura): temporarily reversed migraine aura in some cases

SMILES: CC(=O)Oc1ccccc1C(=O)O [aspirin, acetylsalicylic acid]
- total bleeding time (platelet activity; low-dose / small therapeutic doses orally): prolongs the total bleeding time; also recorded: prolonged
- platelet activity (platelet activity; low-dose intake): inhibits platelet activity

SMILES: CN(CC(=O)O)C(=N)N [creatine]
- neurocyte viabilities after anoxic periods (hippocampal brain tissue): greater neurocyte viabilities
- neuronal free creatine and phosphocreatine levels (hippocampal brain tissue): large increases in neuronal free creatine and phosphocreatine levels
- muscle fatigue with physical exercise (muscle): lessened muscle fatigue
- muscle stores of free creatine and phosphocreatine (muscle): greater muscle stores of free creatine and phosphocreatine

From US6028107A, “Orthomolecular medical use of L-citrulline for vasoprotection, relaxative smooth muscle tone and cell protection” (priority 1997, dated 2000)
